Results taken from ChEMBL document CHEMBL1201862, “PubChem BioAssay data set” (2004).
Calls of active or inactive are those of the source.

How the values were obtained:
Coagulation factor XII = target: T1, Coagulation factor XII (Homo sapiens, UniProt P00748); assay: FXIIa inhibitor potency, concentration-response, biochemical (AID 716); assay type: functional
T1 sequence (P00748 whole entry): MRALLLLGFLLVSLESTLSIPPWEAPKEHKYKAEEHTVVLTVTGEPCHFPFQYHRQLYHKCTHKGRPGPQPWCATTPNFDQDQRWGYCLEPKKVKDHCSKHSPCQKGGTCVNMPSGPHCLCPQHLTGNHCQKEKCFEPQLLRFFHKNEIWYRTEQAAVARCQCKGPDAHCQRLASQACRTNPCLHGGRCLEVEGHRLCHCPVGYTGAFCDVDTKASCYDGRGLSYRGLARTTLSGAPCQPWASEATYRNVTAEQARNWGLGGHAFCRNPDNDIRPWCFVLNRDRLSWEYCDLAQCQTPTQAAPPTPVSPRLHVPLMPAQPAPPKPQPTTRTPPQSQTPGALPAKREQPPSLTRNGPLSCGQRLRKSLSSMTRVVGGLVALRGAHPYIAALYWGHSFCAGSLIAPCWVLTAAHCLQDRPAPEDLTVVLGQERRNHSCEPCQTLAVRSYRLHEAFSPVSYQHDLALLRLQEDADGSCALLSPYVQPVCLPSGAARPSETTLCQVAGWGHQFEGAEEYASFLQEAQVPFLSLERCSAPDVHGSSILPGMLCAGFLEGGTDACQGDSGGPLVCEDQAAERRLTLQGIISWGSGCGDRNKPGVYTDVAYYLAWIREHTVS

CAAX prenyl protease 2 = target: T2, CAAX prenyl protease 2 (Saccharomyces cerevisiae S288c, UniProt Q03530); assay type: biochemical
T2 sequence (Q03530 whole entry): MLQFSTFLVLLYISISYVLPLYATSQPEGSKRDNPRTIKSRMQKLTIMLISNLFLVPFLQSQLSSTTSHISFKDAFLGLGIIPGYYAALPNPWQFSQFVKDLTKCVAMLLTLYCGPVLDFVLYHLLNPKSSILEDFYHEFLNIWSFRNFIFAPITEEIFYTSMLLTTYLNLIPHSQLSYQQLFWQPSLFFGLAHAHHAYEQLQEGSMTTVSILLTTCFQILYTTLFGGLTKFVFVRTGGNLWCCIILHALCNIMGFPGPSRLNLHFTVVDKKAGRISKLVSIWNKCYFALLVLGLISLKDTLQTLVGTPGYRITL

[1] = target: T3, Heat shock factor protein 1 (Mus musculus, UniProt P38532); assay: inhibition of MG132-induced HSE-luciferase signal, confirmation, cell-based, NIH3T3, luminescence, dose retest (AID 2382); assay type: functional;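 further: NIH3T3 fibroblasts with HSF1-driven luciferase reporter stressed by proteasome inhibitor MG132; luminescence from HSF1-driven luciferase expression after 8 hours of MG132 stress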
T3 sequence (P38532 whole entry): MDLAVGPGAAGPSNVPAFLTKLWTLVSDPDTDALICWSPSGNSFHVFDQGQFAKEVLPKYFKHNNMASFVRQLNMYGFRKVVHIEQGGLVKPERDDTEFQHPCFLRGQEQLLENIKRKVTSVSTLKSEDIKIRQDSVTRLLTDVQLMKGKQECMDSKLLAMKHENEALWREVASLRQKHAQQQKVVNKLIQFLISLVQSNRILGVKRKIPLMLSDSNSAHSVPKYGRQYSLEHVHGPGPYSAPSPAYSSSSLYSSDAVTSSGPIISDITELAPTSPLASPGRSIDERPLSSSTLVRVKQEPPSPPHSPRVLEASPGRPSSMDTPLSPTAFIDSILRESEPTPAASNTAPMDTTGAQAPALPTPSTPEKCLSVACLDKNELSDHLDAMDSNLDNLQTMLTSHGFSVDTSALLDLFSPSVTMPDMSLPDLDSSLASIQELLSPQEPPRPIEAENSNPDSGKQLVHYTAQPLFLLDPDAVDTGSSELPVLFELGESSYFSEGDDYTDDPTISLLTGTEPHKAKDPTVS

[2] = mammalian cell cytotoxicity, dose response, cytotoxicity control, plate reader, cherry-pick samples (AID 504397); assay type: functional, cell-based
SUMO-activating enzyme = SUMO-activating enzyme (Homo sapiens, UniProt Q9UBT2); assay: SUMOylation inhibitor hit validation, confirmation, SUMOylation inhibitor project, biochemical, AlphaScreen (AID 2018); assay type: functional
Chain of SUMO-activating enzyme (Q9UBE0 whole entry, the tested form may be a part): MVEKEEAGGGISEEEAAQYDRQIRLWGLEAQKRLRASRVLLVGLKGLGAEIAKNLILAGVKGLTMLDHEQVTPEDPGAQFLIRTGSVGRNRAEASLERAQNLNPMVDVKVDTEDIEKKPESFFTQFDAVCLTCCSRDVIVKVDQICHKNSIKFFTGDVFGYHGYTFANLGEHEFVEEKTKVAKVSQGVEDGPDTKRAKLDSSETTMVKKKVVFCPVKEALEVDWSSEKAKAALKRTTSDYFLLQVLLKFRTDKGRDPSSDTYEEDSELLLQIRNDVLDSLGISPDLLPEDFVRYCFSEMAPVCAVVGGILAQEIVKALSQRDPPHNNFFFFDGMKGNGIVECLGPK
Chain of SUMO-activating enzyme (Q9UBT2 whole entry, the tested form may be a part): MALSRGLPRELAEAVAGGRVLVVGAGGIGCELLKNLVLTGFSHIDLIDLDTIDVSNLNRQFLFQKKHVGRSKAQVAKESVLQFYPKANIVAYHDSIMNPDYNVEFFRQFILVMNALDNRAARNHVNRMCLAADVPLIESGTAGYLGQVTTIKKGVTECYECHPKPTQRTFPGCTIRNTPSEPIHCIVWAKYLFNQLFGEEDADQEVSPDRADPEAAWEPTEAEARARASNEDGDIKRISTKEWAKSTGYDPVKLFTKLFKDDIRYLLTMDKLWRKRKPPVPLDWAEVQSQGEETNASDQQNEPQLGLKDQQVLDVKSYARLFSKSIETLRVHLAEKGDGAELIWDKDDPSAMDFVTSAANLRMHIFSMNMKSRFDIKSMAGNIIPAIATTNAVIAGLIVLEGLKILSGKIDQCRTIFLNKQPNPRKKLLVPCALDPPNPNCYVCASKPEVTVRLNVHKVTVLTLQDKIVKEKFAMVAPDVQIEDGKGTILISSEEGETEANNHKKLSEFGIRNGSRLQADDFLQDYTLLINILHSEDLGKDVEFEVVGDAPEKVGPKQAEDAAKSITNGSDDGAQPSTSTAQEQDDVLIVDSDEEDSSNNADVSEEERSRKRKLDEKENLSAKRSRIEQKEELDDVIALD

[3] = target: T4, Type-1 angiotensin II receptor (Homo sapiens, UniProt P30556); assay: AT1 receptor agonists, dose response, selectivity assay for APJ receptor agonist project, cell-based, uHTS hits (AID 488865); assay type: functional;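 further: beta-arrestin recruitment to AT1 measured by enzyme fragment complementation luminescence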
T4 sequence (P30556 whole entry): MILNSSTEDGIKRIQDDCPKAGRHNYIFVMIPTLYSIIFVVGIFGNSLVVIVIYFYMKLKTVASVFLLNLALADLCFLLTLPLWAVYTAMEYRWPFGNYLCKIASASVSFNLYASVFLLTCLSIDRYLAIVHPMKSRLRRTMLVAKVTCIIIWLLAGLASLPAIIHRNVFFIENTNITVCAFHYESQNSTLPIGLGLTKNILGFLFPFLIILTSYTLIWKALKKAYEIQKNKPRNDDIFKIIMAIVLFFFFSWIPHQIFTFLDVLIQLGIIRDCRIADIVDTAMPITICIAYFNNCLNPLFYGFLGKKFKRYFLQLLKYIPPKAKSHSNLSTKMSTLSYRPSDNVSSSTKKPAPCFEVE

[4] = inhibitors of intracellular T. cruzi replication, confirmation, NIH3T3 host cells, beta-gal luminescence (AID 2044); assay type: functional, cell-based;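 further: intracellular parasites grown in NIH/3T3 mouse fibroblasts as host cells; luminescent beta-galactosidase reporter signal from transgenic T. cruzi replicating inside host cells; inhibitors lower the luminescence signal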
[5] = cytotoxicity toward NIH3T3 fibroblasts, dose response, counter-screen, cell-based, ATP luminescence, mouse fibroblasts (AID 2010); assay type: functional;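 further: cells exposed to compound for about 90 hours before reading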
HEK293 = assay: inhibitors of LMP1-driven NF-kB reporter, dose response, cell-based, HEK293, luciferase, cherry-pick (AID 588343); assay type: functional; conditions: Homo sapiens
[6] = target: T5, Runt-related transcription factor 1/Core-binding factor subunit beta (Homo sapiens, UniProt Q01196+Q13951); assay: inhibitors of RUNX1 Runt–CBFb-SMMHC binding, primary screen, biochemical, FRET, Cerulean-Runt, Venus-CBFb-SMMHC, uHTS (AID 1434); assay type: protein assay;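 further: partner is the CBFb-SMMHC leukemia fusion protein rather than wild-type CBFb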
T5 sequence (Q01196 whole entry, the tested form may be a part): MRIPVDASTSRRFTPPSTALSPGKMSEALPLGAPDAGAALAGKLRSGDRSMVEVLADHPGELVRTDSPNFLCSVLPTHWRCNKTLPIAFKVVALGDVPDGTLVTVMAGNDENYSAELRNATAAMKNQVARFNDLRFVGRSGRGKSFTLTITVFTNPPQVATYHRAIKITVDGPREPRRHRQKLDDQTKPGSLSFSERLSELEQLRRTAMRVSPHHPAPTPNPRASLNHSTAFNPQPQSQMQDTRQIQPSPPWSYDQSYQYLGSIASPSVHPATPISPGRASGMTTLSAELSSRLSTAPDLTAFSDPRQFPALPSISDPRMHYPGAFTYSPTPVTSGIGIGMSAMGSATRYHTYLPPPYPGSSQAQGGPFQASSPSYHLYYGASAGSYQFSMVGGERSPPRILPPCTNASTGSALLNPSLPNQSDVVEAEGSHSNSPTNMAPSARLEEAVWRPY
T5 sequence (Q13951 whole entry, the tested form may be a part): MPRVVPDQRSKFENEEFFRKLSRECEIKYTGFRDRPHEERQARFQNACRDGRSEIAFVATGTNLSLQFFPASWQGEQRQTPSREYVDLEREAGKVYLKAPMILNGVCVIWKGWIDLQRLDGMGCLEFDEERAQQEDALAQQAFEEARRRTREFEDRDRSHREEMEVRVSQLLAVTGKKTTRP

[7] = target: T5, Runt-related transcription factor 1/Core-binding factor subunit beta; assay: inhibitors of RUNX1 Runt–CBFb-SMMHC binding, biochemical, TR-FRET (AID 1438); assay type: protein assay
[8] = C. albicans growth with fluconazole, confirmation, fluorescence, retest (AID 2467); assay type: functional, cell-based
[9] = target: T6, Mannose-6-phosphate isomerase (Homo sapiens, UniProt P34949); assay: human PMI inhibitors, high substrate, primary screen, biochemical, fluorescence intensity, high mannose 6-phosphate (AID 1220)
T6 sequence (P34949 whole entry): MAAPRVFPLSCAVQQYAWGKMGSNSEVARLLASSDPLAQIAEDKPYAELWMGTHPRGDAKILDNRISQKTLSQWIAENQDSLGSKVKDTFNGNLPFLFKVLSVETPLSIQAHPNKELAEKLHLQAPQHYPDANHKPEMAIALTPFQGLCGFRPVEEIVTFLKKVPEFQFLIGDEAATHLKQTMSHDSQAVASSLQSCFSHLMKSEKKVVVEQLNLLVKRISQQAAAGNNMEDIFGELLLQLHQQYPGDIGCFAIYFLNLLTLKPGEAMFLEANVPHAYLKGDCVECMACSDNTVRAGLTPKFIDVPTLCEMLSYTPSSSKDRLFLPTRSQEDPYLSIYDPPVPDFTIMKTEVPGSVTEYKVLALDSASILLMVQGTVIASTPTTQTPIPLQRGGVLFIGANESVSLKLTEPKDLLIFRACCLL

[10] = NIH-3T3 fibroblast cytotoxicity, dose response, cytotoxicity control, cell-based, fluorescence, Alamar Blue, secondary assay (AID 2327); assay type: functional;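 further: NIH-3T3 mouse fibroblasts cultured with fluconazole at 8 µg/mL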
[11] = target: Induced myeloid leukemia cell differentiation protein Mcl-1 (Homo sapiens, UniProt Q07820); assay type: functional
Chain of Induced myeloid leukemia cell differentiation protein Mcl-1 (Q07820 whole entry): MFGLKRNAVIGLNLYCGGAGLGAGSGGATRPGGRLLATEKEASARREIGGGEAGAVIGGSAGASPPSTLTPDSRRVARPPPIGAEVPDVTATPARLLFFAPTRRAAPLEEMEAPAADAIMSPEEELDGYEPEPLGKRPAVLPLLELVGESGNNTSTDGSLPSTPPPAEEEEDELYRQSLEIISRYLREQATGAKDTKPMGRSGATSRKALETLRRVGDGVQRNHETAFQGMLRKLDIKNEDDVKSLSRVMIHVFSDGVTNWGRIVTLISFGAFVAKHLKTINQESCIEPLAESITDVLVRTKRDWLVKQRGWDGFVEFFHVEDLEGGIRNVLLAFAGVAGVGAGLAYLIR

[12] = target: 72 kDa type IV collagenase (Homo sapiens, UniProt P08253); assay: Dose Response validation of uHTS RPN11 inhibitor hits using a MMP-2 Fluorescence assay.; assay type: functional
Chain of 72 kDa type IV collagenase (P08253 whole entry): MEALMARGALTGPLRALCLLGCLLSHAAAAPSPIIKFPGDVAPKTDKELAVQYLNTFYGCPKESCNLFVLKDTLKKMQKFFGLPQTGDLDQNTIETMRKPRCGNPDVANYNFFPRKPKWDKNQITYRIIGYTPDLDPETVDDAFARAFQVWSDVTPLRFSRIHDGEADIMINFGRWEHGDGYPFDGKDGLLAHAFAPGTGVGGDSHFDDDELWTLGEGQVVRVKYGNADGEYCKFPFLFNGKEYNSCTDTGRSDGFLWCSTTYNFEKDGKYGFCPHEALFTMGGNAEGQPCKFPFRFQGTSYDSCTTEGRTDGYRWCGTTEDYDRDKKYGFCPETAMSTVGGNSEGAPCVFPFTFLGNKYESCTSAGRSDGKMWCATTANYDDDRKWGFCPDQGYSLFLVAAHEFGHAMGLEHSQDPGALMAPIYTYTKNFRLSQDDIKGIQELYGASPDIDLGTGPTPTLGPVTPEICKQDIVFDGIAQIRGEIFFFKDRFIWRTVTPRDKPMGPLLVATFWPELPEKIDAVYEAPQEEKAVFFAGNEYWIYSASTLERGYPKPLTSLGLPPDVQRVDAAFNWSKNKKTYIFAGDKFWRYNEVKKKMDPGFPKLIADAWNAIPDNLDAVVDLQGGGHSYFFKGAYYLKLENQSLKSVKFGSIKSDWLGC

Prothrombin = Prothrombin (Bos taurus, UniProt P00735); assay: thrombin inhibition, dose response, biochemical, fluorescence polarization, uHTS hits (AID 602369); assay type: functional
[13] = target: 26S proteasome non-ATPase regulatory subunit 14 (Homo sapiens, UniProt O00487); assay: inhibition of proteasome subunit RPN11 – biochemical, fluorescence polarization, uHTS hits, confirmation (AID 602368); assay type: functional
Chain of 26S proteasome non-ATPase regulatory subunit 14 (O00487 whole entry): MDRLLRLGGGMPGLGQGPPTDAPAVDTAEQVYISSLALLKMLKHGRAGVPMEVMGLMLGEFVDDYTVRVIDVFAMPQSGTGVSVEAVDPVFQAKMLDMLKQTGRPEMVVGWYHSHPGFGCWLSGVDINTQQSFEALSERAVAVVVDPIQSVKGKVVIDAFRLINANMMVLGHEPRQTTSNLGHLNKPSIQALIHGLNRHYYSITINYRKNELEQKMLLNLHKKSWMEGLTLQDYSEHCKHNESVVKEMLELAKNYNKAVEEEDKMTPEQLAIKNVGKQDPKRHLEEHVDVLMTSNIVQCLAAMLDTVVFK

[14] = target: T7, Aryl hydrocarbon receptor (Homo sapiens, UniProt P35869); assay: Luminescence-based cell-based high throughput dose response assay for activators of the Aryl Hydrocarbon Receptor (AHR). [Related pubchem assays: 2796 (Primary screen (AHR activators in singlicate)), 2845 (Confirmation screen (AHR activators in triplicate)), 434939 (Counterscreen (PXR activators in triplicate)), 2804 (Summary (AHR activators))]; assay type: ADME
T7 sequence (P35869 whole entry): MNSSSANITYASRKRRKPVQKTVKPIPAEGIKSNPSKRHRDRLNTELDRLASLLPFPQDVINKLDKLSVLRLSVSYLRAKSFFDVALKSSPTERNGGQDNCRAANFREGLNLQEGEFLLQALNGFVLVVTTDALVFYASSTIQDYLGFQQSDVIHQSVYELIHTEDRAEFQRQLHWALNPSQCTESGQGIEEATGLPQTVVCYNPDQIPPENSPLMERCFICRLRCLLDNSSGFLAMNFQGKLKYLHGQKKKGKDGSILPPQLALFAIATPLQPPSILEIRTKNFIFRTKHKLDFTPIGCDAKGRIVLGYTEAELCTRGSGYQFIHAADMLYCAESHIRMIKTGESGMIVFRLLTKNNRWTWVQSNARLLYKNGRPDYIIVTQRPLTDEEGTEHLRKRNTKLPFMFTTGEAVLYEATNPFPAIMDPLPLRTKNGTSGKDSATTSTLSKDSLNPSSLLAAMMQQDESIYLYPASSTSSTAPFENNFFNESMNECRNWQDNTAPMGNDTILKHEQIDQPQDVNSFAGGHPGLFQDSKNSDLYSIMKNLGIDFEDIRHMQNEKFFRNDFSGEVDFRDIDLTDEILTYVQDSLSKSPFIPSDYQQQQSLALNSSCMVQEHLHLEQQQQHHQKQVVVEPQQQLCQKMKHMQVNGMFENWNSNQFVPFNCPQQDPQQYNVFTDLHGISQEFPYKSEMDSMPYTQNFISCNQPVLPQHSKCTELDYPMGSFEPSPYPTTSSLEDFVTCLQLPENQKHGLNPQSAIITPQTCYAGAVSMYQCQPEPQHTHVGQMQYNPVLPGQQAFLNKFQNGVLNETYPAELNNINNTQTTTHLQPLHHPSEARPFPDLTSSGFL

**Q.** With `O=C(Nc1nccs1)c1cccc(S(=O)(=O)N2CCCCC2)c1` as the compound, how does the IC50 (Coagulation factor XII) read?
**A.** > 50 µM (inactive)

**Q.** With `CN(C(=O)c1ccc2c(c1)SC1=NS(=O)(=O)CCN12)C(c1ccccc1)c1ccccc1` as the compound, how does the AC50 (CAAX prenyl protease 2) read?
**A.** 2.1 µM (active)

**Q.** What about the EC50 [1] of the same compound?
**A.** > 195 µM (not active)

**Q.** And the AC50 [2]?
**A.** 138 µM (active)

**Q.** For `CCc1cc2cc(C(=O)Nc3ccccc3F)sc2s1`, which IC50 (Coagulation factor XII) is on record?
**A.** > 50 µM (inactive)

**Q.** For `Cc1ccc(O)c(NC(=O)c2cc3nc4c(c(C(F)(F)F)n3n2)CCc2ccccc2-4)c1`, which IC50 (SUMO-activating enzyme) is on record?
**A.** 63.7 µM (active)

**Q.** For `Cc1ccc(S(=O)(=O)Nc2nc(-c3ccccc3)cs2)cc1`, which EC50 [3] is on record?
**A.** > 100 µM (inactive)

**Q.** With `Oc1c(N=NC(S)=Nc2ccccc2F)c2ccccc2n1Cc1ccccc1Cl` as the compound, how does the EC50 [4] read?
**A.** 1.28 µM (active)

**Q.** What about the EC50 [5] of the same compound?
**A.** 17.5 µM (active)

**Q.** What about the AC50 (HEK293) of the same compound?
**A.** 18.7 µM (active)

**Q.** What about the AC50 [2] of the same compound?
**A.** 210 µM (active)

**Q.** What does the source list for `O=C(CC1Sc2ccccc2NC1=O)OCc1cc(=O)oc2cc(O)ccc12` (centres undefined)?
**A.** IC50 [6]: 2.71 µM (active); IC50 [7]: 19.6 µM (active)

**Q.** What does the source list for `Cc1cccc(N2CCc3c2nc2ccc(Br)cc2c3N)c1`?
**A.** EC50 [8]: 1.67 µM (active); AC50 (CAAX prenyl protease 2): 8.82 µM (active); IC50 [9]: > 50 µM (not active); AC50 [2]: 94.9 µM (active); EC50 [10]: 21.4 µM (inconclusive)

**Q.** Which IC50 [6] does the source give for `CC(C)CNC(=O)c1c(N)n(Cc2ccco2)c2nc3ccccc3nc12` here?
**A.** 1.86 µM (active)

**Q.** And the IC50 [11]?
**A.** 4.4 µM (not active)

**Q.** And the IC50 [7]?
**A.** 11.7 µM (active)

**Q.** Which EC50 [3] does the source give for `CCCCC1=CC2=CC(=O)C(C)(OC(=O)C3CCCC3)C(=O)C2=CO1` (centres undefined) here?
**A.** > 100 µM (inactive)

**Q.** And the IC50 [12]?
**A.** > 100 µM (inactive)

**Q.** And the IC50 (Prothrombin)?
**A.** 7.84 µM (active)

**Q.** And the IC50 [13]?
**A.** 7.64 µM (active)

**Q.** Which IC50 [6] does the source give for `COc1cccc2c(=O)c3cccc(N)c3[nH]c12` here?
**A.** > 100 µM (inactive)

**Q.** And the IC50 [11]?
**A.** 6.38 µM (not active)

**Q.** And the EC50 [14]?
**A.** > 91.8 µM (not active)

**Q.** What about the IC50 [7] of the same compound?
**A.** > 100 µM (inactive)
